Literature values in patent US20200188266A1, “Oral Care Compositions and Methods of Use” (priority 2017, published 2020).

Conditions: DI water at about 35° C.

CC(=O)c1c(O)c(C)c(O)c2c1OC1=CC(=O)C(C(C)=O)C(=O)C12C (stereo not shown) [usnic acid]
solubility: about 6.3 ppm
